The target in one experiment is T1, MALT1 (Homo sapiens, UniProt Q9UDY8).
T1 construct: Avi-tagged FL MALT-1 (Pharmaron, stored at −70° C.); Avi tag
T1 sequence (Q9UDY8 1-824): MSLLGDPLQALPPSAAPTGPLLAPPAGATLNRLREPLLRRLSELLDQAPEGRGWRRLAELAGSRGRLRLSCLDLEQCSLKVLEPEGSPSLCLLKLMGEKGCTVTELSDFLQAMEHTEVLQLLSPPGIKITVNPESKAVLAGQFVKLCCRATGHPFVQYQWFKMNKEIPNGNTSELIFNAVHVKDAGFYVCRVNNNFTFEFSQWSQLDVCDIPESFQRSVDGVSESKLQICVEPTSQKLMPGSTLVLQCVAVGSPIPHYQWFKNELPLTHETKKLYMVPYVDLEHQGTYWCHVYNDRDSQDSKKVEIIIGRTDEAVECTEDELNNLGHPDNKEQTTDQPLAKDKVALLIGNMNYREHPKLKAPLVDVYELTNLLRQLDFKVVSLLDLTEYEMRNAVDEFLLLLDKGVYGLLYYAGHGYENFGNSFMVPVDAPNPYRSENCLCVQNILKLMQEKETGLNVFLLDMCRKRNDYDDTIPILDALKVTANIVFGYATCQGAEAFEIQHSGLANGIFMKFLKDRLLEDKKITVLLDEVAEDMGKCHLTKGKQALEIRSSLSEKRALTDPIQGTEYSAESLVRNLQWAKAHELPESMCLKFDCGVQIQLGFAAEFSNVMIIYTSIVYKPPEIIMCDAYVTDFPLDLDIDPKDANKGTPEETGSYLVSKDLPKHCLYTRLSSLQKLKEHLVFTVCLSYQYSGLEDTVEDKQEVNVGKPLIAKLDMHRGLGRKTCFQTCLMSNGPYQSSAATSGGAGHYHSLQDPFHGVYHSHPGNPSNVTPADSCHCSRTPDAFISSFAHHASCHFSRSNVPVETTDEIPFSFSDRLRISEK
As to the kind of experiment: MALT-1 Fluorogenic Peptide Cleavage Assay (MALT1 inhibition assay). Format: biochemical. The following applies: Avi-tagged FL MALT-1, Ac-LRSR-AMC peptide substrate, 30 min pre-incubation, 90 min reaction. On the procedure:
Inhibition of MALT1 activity by the presence of small molecules was evaluated using MALT-1 Fluorogenic Peptide Cleavage Assay. The assay utilizes a quenched AMC-labelled peptide that contains the MALT-1 recognition sequence and cleavage site (LRSR). MALT-1 mediated cleavage of the peptide relieves the quenching and leads to an increase in fluorescence at excitation (342 nm) and emission (441 nm). The following reagents were obtained commercially and used to prepare standard reagent formulations as further described below: […] The standard reagent formulations used in this assay were prepared and stored as follows. A 1.1 M solution of sodium citrate (161.3 g, 500 mL) was prepared and stored at room temperature. A 10% (w/v) CHAPS solution (2.0 g, 20 mL) was prepared and stored at 4° C. A 500 mM HEPES solution having pH of 6.89 was prepared from 200 mL of a 1 M HEPES solution having a pH of 7.5 using concentrated hydrochloric acid and brought to a final volume of 400 mL with […]® H2O. The substrate, 10 mM Ac-LRSR-AMC Peptide, was prepared (10 mg, 1.370 mL DMSO) and stored at -20° C. Compounds were plated to provide a 2% DMSO final concentration using a ProxiPlate-384 Plus F Black 384-shallow well microplate. The assay-ready plates were equilibrated to room temperature. […] DMSO was added only when compound plates had not been DMSO-backfilled to 2%. MALT-1 was thawed and kept on ice. Peptide substrate was thawed on the bench under ambient conditions. A MALT-1 enzyme working stock was prepared from Avi-tagged FL MALT-1 (40 nM in a prepared reagent volume of 16.5 μL) and the reaction buffer (13.0 mL). MALT1 working stock (5 μL) was added to each well of the microplate. MALT-1 was pre-incubated with compounds for 30 minutes at room temperature. […] The plates were covered and incubated on the bench at room temperature for 90 minutes. Fluorescence intensity was determined using a CLARIOstar microplate reader (BMG LABTECH) using the optimised AMC mode. Before taking readings, a 70% gain was applied on the neutral control well. Compound data were normalised to % Inhibition and used to plot sigmoidal concentration response curves to yield various parameters including IC50. […] Compounds in which an IC50 was not measured are designated as “N/A”.

A further experiment deals with NF-kB. The experiment in a line: NF-kB reporter assay in Jurkat cells stimulated with aCD3/aCD28/PMA. The format is cell-based. The following applies: Homo sapiens, Jurkat, Jurkat cells, 1 hr compound incubation, aCD3/aCD28/PMA stimulation 4 hr, One-Glo readout; read-out: NF-kB Reporter Assay IC50. Here is the method: Jurkat cells were maintained in complete RPMI 1640 media supplemented with 10% FBS. Prior to the assay, 120 nL of the serial diluted compound was added in each well of 384-well flat bottom white plate (Corning #3570) by using liquid handler Echo550. Jurkat cells were harvested by centrifugation at 120 g for 10 min and resuspended in fresh RPMI 1640 media without serum. 30 μL of cells (25,000 cells) were seeded in each well of 384-well plate containing compound. After 1 hr incubation at 37° C. in a 5% CO2 incubator, 10 μL of diluted aCD3/aCD28/PMA (final concentration at 5 μg/mL, 5 μg/mL and 0.03 μg/mL, respectively) in RPMI 1640 without serum were added to each well. After incubation at 37° C. in 5% CO2 for 4 hr, 30 μL of One-Glo reagent (Promega #E6120) was added into each well. The plate was left at room temperature for 5 min and the signal was measured on EnVision (PerkinElmer).
Compounds in which an IC50 was not measured are designated as “N/A”.
For orientation: A reporter such as luciferase makes a cellular process visible.

pIC50: −log10 of the molar value. Bounds are passed on as bounds.

What is called pIC50 is the negative decadic logarithm of the IC50, by convention in mol/L. For `Cc1cc(C(F)(F)F)nn1-c1ccc(S(=O)(=O)Nc2cccc3cnn(C)c23)cn1` [Example I-43, 6-[5-Methyl-3-(Trifluoromethyl)Pyrazol-1-Yl]-N-(1-Methylindazol-7-yl)Pyridine-3-Sulfonamide], the pIC50 is 5.60 to 6.00 at MALT1 and > 6.40 in the experiment on NF-kB.

Take `Cc1cn(-c2ccc(S(=O)(=O)Nc3cccc4cnn(C)c34)cn2)nc1C(F)(F)F` [Example I-44, 6-[4-Methyl-3-(Trifluoromethyl)Pyrazol-1-Yl]-N-(1-Methylindazol-7-yl)Pyridine-3-Sulfonamide]: the pIC50 on MALT1 is 6.00 to 6.40; in the experiment with NF-kB it was > 6.40.

Consider `COc1ccc2cnn(C)c2c1N(C)S(=O)(=O)c1ccc(-c2cc(C(F)(F)F)n[nH]2)nc1` [Example I-48, N-(6-Methoxy-1-Methyl-1H-Indazol-7-yl)-N-Methyl-6-(3-(Trifluoromethyl)-1H-Pyrazol-5-yl)Pyridine-3-Sulfonamide], for which the pIC50 against MALT1 and in the experiment with NF-kB was > 6.40 throughout.

As for `COc1ccc2cnn(C)c2c1NS(=O)(=O)c1ccc(-c2cc(C(F)(F)F)n(C)n2)nc1` [Example I-49, N-(6-Methoxy-1-Methyl-1H-Indazol-7-yl)-6-(1-Methyl-5-(Trifluoromethyl)-1H-Pyrazol-3-yl)Pyridine-3-Sulfonamide], the pIC50 against MALT1 and in the experiment on NF-kB was > 6.40 throughout.

Turning to `Cn1ncc2cccc(NS(=O)(=O)c3ccc(-n4cc(C(F)F)cn4)nc3)c21` [Example I-50, 6-[4-(Difluoromethyl)Pyrazol-1-Yl]-N-(1-Methylindazol-7-yl)Pyridine-3-Sulfonamide], the pIC50 at MALT1 is 6.00 to 6.40; in the experiment with NF-kB, > 6.40.

In the case of `Cn1ncc2cccc(NS(=O)(=O)c3ccc(-n4ccc(C(F)F)n4)nc3)c21` [Example I-51, 6-[3-(Difluoromethyl)Pyrazol-1-Yl]-N-(1-Methylindazol-7-yl)Pyridine-3-Sulfonamide], the pIC50 against MALT1 was 5.60 to 6.00; in the experiment on NF-kB it was > 6.40.

For `Cc1cnn(-c2ccc(S(=O)(=O)Nc3cccc4cnn(C)c34)cn2)n1` [Example I-52, N-(1-Methyl-1H-Indazol-7-yl)-6-(4-Methyl-2H-1,2,3-Triazol-2-yl)Pyridine-3-Sulfonamide], the values for the negative logarithm of the IC50 (pIC50) against MALT1 and in the experiment with NF-kB were < 5.60 and 5.60 to 6.00, respectively.

Take `Cc1cn(-c2ccc(S(=O)(=O)Nc3cccc4cnn(C)c34)cn2)nn1` [Example I-53, 6-(4-Methyl-1H-1,2,3-Triazol-1-yl)-N-(1-Methyl-1H-Indazol-7-yl)Pyridine-3-Sulfonamide]: the pIC50 was < 5.60 at MALT1 and 6.00 to 6.40 in the experiment on NF-kB.

As to `Cn1ncc2cccc(NS(=O)(=O)c3ccc(-n4cc(C5(F)CC5)cn4)nc3)c21` [Example I-55], the pIC50 is < 5.60 against MALT1 and > 6.40 with NF-kB.

Consider `Cn1ncc2cccc(NS(=O)(=O)c3ccc(-n4cc(C5(O)CC5)cn4)nc3)c21` [Example I-56, 6-(4-(1-hydroxycyclopropyl)-1H-pyrazol-1-yl)-N-(1-methyl-1H-indazol-7-yl)pyridine-3-sulfonamide], for which the pIC50 was < 5.60 at MALT1 and > 6.40 in the experiment with NF-kB.

On to `Cc1cnn(-c2ccc(S(=O)(=O)Nc3cccc4cnn(C)c34)cn2)c1C` [Example I-57, 6-(4,5-Dimethylpyrazol-1-yl)-N-(1-Methylindazol-7-yl)Pyridine-3-Sulfonamide], for which the pIC50 is < 5.60 at MALT1 and > 6.40 with NF-kB.

Take `Cc1cn(-c2ccc(S(=O)(=O)Nc3cccc4cnn(C)c34)cn2)nc1C` [Example I-58, 6-(3,4-Dimethylpyrazol-1-yl)-N-(1-Methylindazol-7-yl)Pyridine-3-Sulfonamide]: the pIC50 against MALT1 was 5.60 to 6.00; with NF-kB it was > 6.40.

Turning to `Cc1nn(-c2ccc(S(=O)(=O)Nc3cccc4cnn(C)c34)cn2)c(C)c1C` [Example I-59, N-(1-Methyl-1H-Indazol-7-yl)-6-(3,4,5-Trimethyl-1H-Pyrazol-1-yl)Pyridine-3-Sulfonamide], the pIC50 at MALT1 was < 5.60; in the experiment on NF-kB, > 6.40.

Take `Cn1ncc2cccc(NS(=O)(=O)c3ccc(-n4nccc4C4CC4)nc3)c21` [Example I-62, 6-(5-Cyclopropylpyrazol-1-yl)-N-(1-Methylindazol-7-yl)Pyridine-3-Sulfonamide]: the pIC50 was < 5.60 against MALT1 and > 6.40 in the experiment on NF-kB.

Take `Cc1ccc2cnn(C)c2c1NS(=O)(=O)c1ccc(-c2cc(C(F)(F)F)n[nH]2)nc1` [Example I-63, N-(1,6-dimethyl-1H-indazol-7-yl)-6-(5-(trifluoromethyl)-1H-pyrazol-3-yl)pyridine-3-sulfonamide]: the negative logarithm of the IC50 (pIC50) at MALT1 and in the experiment with NF-kB was > 6.40 each time.

Regarding `Cn1nnc2cccc(NS(=O)(=O)c3ccc(-n4cc(C(F)(F)F)cn4)nc3)c21` [Example I-64, N-(1-Methyl-1H-Benzo[D][1,2,3]Triazol-7-yl)-6-(4-(Trifluoromethyl)-1H-Pyrazol-1-yl)Pyridine-3-Sulfonamide], the pIC50 on MALT1 and in the experiment on NF-kB was < 5.60 throughout.

On to `Cc1cc(S(=O)(=O)Nc2cccc3cnn(C)c23)cnc1-n1cc(C(F)(F)F)cn1` [Example I-65, 5-Methyl-N-(1-Methyl-1H-Indazol-7-yl)-6-(4-(Trifluoromethyl)-1H-Pyrazol-1-yl)Pyridine-3-Sulfonamide], for which the pIC50 was 5.60 to 6.00 at MALT1 and > 6.40 in the experiment with NF-kB.

Turning to `[2H]C([2H])([2H])Oc1ccc2cnn(C)c2c1NS(=O)(=O)c1ccc(-n2cc(C(F)(F)F)cn2)nc1` [Example I-68, N-(6-(Methoxy-D3)-1-Methyl-1H-Indazol-7-yl)-6-(4-(Trifluoromethyl)-1H-Pyrazol-1-yl)Pyridine-3-Sulfonamide], the pIC50 at MALT1 and in the experiment on NF-kB was > 6.40 throughout.

Consider `[2H]C([2H])([2H])c1ccc2cnn(C)c2c1NS(=O)(=O)c1ccc(-n2cc(C(F)(F)F)cn2)nc1` [Example I-69, N-(1-Methyl-6-(Methyl-Ds)-1H-Indazol-7-yl)-6-(4-(Trifluoromethyl)-1H-Pyrazol-1-yl)Pyridine-3-Sulfonamide], for which the pIC50 at MALT1 and in the experiment with NF-kB was > 6.40 each time.

For `[2H]C([2H])(C)c1ccc2cnn(C)c2c1NS(=O)(=O)c1ccc(-n2cc(C(F)(F)F)cn2)nc1` [Example I-70, N-(6-(Ethyl-1,1-D2)-1-Methyl-1H-Indazol-7-yl)-6-(4-(Trifluoromethyl)-1H-Pyrazol-1-yl)Pyridine-3-Sulfonamide], the pIC50 against MALT1 and in the experiment on NF-kB was > 6.40 each time.

Values taken from US20240150365A1 (Hotspot Therapeutics, Inc., priority 2022, published 2024).
